What was measured:
[1] = system: Ca2+ influx in CF neutrophils; assay: Fluo-4 Ca2+ influx across the plasma membrane, CF neutrophils; format: cell-based, human
Procedure: Isolated neutrophils were incubated with peptide or vehicle control for 3 h. For the final hour of treatment, cells were loaded with Fluo-4 direct (Thermofisher) for 45 min at 37°C and 15 min at room temperature as described.
Fig. 3. ELD607 inhibits SOCE in non-CF and CF neutrophils. (A) and (B) Mean changes in fluo-4 fluorescence as a marker of cytoplasmic Ca^2+ levels in non-CF and CF neutrophils respectively before and after stimulation with 1 μM thapsigargin (Tg). Before stimulation, neutrophils were exposed to vehicle (0.1% DMSO in PBS), 10 μM ELD607 or scrambled peptide (control) for 3 h. N = 10 non-CF and 21 CF donors. Stats show ELD607 vs vehicle or scrambled peptide based on color. (C-F) Isolation of ER Ca^2+ release vs Ca^2+ influx across the plasma membrane in non-CF and CF Neutrophils. Neutrophils were stimulated with thapsigargin (1 μM) in the absence of extracellular Ca^2+ to allow the release of Ca^2+ stores to be measured. Extracellular Ca^2+ was then returned so that extracellular Ca^2+ influx could be measured. (C) Mean fold change in Fluo-4 fluorescence during ER store release in non-CF and CF neutrophils. […] (E) Mean fold change in fluo-4 fluorescence during Ca^2+ influx in non-CF and CF neutrophils. […]
SOCE has 2 phases: release of Ca^2+ from ER stores and Ca^2+ influx from the extracellular space via Ca^2+ channels such as Orai1. […] Once the stores had emptied, extracellular Ca^2+ was reintroduced and Ca^2+ influx was measured (Fig. 3C–F).
Fluo-4 Ca^2+ assays. […] For global Ca^2+ measurements, baseline fluorescent readings were made for 2 min (1 read every 30 s) using a Tecan Infinite M1000 plate reader (ex 494 em 516 nm, bandwidth 5 nm) before thapsigargin (Sigma-Aldrich) was added and the change in emission was recorded for 10 min (1 read every 30 s). […] Baseline fluo-4 fluorescence was read for 2 min before cell were stimulated with thapsigargin (Tocris). Reads continued for ~5 min before 1.2 mM Ca^2+ was added to the extracellular solution and SOCE was measured for ~10 mins. For analysis, all fluo-4 fluorescence reads are normalized to baseline.

[2] = system: bacterial lung infections in mice; conditions: cited from earlier work
Text: In ... || CF neutrophils with elevated SOCE undergo more degranulation, leading to greater release of proteases/pro-inflammatory mediators. Therefore, increased SOCE may be a driving force for declining CF lung function. However, there is much to do to fully understand this phenomenon, and our data identify an association, not a causality. […] To date, several blood biomarkers have been identified as predictors of CF lung disease. Most biomarkers ( ...

[3] = system: Pseudomonas aeruginosa-infected mice; conditions: ref [21], cited from earlier work
[4] = system: CF neutrophils; assay: Neutrophil degranulation multiplex assay, CF neutrophils; format: cell-based, human; conditions: 3 h, 1 μM thapsigargin 30 min, vs vehicle, paired t-test
Procedure: Neutrophils were immediately isolated by negative selection from deidentified blood samples using an EasySep human neutrophil isolation kit (Stem Cell Technologies) as described. Cytosolic Ca^2+ was measured using Fluo-4 as described. Protein lysate from isolated blood neutrophils was characterized by liquid chromatography with tandem mass spectrometry (LC-MS/MS) as described. Degranulation products in media were quantified by Luminex assay using a custom Bio-Plex human kit (BioRad) per the manufacturer’s protocol […]. Detailed methods for all experiments and measurements are provided in an online data supplement.
Multiple neutrophil functions, including neutrophil degranulation, are Ca^2+ dependent. Neutrophil degranulation results in an increase in several proteases in the lung, including neutrophil elastase, a key driver of CF lung damage. Accordingly, we investigated the impact of ELD607 on neutrophil degranulation as a marker of Ca^2+-dependent neutrophilic function. We used a multiplex assay to quantify key granule proteins released into media after a 3 h pretreatment with 10 μM ELD607 or vehicle control followed by a 30 min stimulation with 1 μM thapsigargin. Levels of myeloperoxidase (MPO; primary granules), lactoferrin (specific granules) and matrix metalloproteinase-9 (MMP9; tertiary granules) release were similar between non-CF and CF neutrophils (Fig. 4A–C).
Fig. 4. ELD607 inhibits degranulation in non-CF and CF neutrophils. Neutrophil degranulation (A-C) was assayed by measuring the concentration of representative constituents of (A) primary granules, MPO (non-CF, n = 9; CF, n = 13); (B) secondary granules, lactoferrin (non-CF, n = 12; CF, n = 17) and (C) tertiary granules, MMP-9 (non-CF, n = 9; CF, n = 12). […]
Multiplex assay. […] Supernatant was collected and analyzed for a panel of neutrophil granule proteins (MPO, lactoferrin, MMP9) using a Bio-Plex human kit (BioRad) per the manufacturer’s protocol. Plates were then analyzed using a Bio-Plex MAGPIX System (BioRad).

[5] = murine models of bacterial lung infections, ref [21]

## VHDIVNMLIRG [ELD607, size-optimized SPLUNC1/α6 peptidomimetic]
[1]; CF neutrophils, absolute terms
  Ca2+ influx relative to non-CF levels: restored Ca^2+ from influx CF neutrophils to non-CF levels
[1]; CF, 3 h pre-treatment, 1 μM thapsigargin, extracellular Ca2+ (1.2 mM) returned, 3 donors in triplicate, vs non-CF p<0.0001
  IC50: 493 nM
[2]; inhaled ELD607, ref [53]
  neutrophilia caused by bacterial infections: abolished neutrophilia
[2]; [5]
  neutrophilia and lung damage: reduced neutrophilia and lung damage
  survival: increased survival
[2]; wild-type mice, alveolar macrophages depleted, ref [21]
  beneficial effects after depletion of alveolar macrophages: abolished the beneficial effects of ELD607
[3]; P. aeruginosa-infected mice
  neutrophilia and neutrophil elastase release: reduces neutrophilia and neutrophil elastase release
[3]; mice, P. aeruginosa, reduced lung injury, increased survival
  neutrophil influx into the lungs: reduces neutrophil influx into the lungs of mice
[4]; n = 12, 10 μM
  MMP9 release (tertiary granules): significantly reduced
[4]; n = 13, 10 μM
  MPO release (primary granules): significantly reduced
[4]; n = 17, 10 μM
  lactoferrin release (specific/secondary granules): significantly reduced

Source: PMC12998938, “Neutrophil store-operated Ca^2+ entry: A correctable biomarker of cystic fibrosis lung disease progression” (Journal of cystic fibrosis : official journal of the …, 2025)
